Read-outs that look alike come from different tables or passages of the source.
Tests used:
[1] = test system: L-1210 mouse lymphocytic leukemia cells; experiment: Toxicity to cultured L-1210 cells, number of viable cells; type: cell-based
From the text: 2. Effects of orotate analogues on cell viability and the ability to synthesize nucleic acids from radioactive precursors, and the rescuing effects of normal pyrimidine bases or nucleosides or amino acid derivatives such as histidinol, can be tested in human-derived tissue culture cell lines. Human HT-1080 human sarcoma cells [Rusheed, S., et al., Cancer, 33:1027-30 (1974)], human diploid IMR-90 cells [Nichols, W. W., et al., Science, 196:60-3 (1977)], human cervical […] HeLa S3 cells [Puck, T. T., et al., J. Exp. Med., 103:273-84 (1956)], HL-60 human myeloid leukemia cells [Collins, S. J., et al., Nature, 270:347-9 (1977)], and mouse leukemia L-1210 cells [Moore, G. E., J. Nat. […] The growth medium most suitable for each cell line can be determined by reference to the publications cited above: briefly, HT-1080 cells are maintained in Eagle's Minimal Essential Medium (EMEM) supplemented with 5% fetal bovine serum (FBS) and 2 mM L-glutamine; IMR-90 cells are grown in EMEM supplemented with 10% FBS, 10 mM Hepes buffer, 0.21% NaHCO3, and 2 mM L-glutamine. […]
Toxicity of pyrimidine analogues to cultured human cells is determined as follows. […] Thereafter, the number of cells in each well is determined. […] Cells that grow in suspension (e.g., HL-60 and L-1210 cells) are transferred to centrifuge tubes, pelleted at low speed, washed, and the viability determined as above. […]

[2] = Pharmacokinetics of 5-fluoro-orotate in mice; type: in vivo, Swiss white mice
Protocol: FIG. 3 illustrates time-dependant changes in plasma 5-fluoroorotate concentration following single intraperitoneal injections of 5-fluoro-orotate at 0.2 mg/kg (.box-solid.), 1 mg/kg (.diamond-solid.), or 5 mg/kg (.tangle-solidup.). Two mice were used at each dosage level. At each time point, duplicate 200 μl samples of blood were drawn and analyzed for 5-fluoro-orotate concentration.
Several types of in vivo experiments in intact vertebrates can be used to test the effectiveness in vivo of the anti-malarial compositions of this invention. In one in vivo test system, dosage regimens for pyrimidine analogues are estimated by determining the pharmacokinetics of the drugs. Normal and malaria parasite-infected animals (preferably mice, but other rodents can be used) are injected once (preferably intraperitoneally, but subcutaneous or intravenous administration is also suitable) with the drug at various doses, e.g, from 0 to about 10 mg/kg body weight, preferably from about 0.2 to about 5 mg/kg body weight. At various time points (preferably from about 3 to about 180 minutes), blood samples are drawn from the animals and the amount of the drug in the plasma fraction determined as described in Example 7 below. The concentration of drug is plotted as a function of time for each drug dosage.
Pairs of Swiss white mice (Charles River Labs, Mass.) were injected intraperitoneally with 200 μl of [2-^14 C]-5-fluoro-orotate in saline (55 μCi/μmol). Single injections of the drug were made at dosages of 0.2, 1 and 5 mg/kg body weight. At time points ranging from about 3 to about 180 minutes, two 200 μl blood samples were drawn from the tail veins of the mice, and the amount of 5-fluoro-orotate present in the plasma determined, as described below.
Blood samples were immediately diluted in 100 μl of cold saline, and centrifuged in a desk top Eppendorf centrifuge for 1 minute to separate the plasma fraction from blood cells. Cell pellets were washed with 100 μl of saline, centrifuged, and the supernatant fractions mixed with plasma fractions. In order to determine the 5-fluoro-orotate concentrations of the diluted plasma fractions, the radioactive content of half the samples was determined by liquid scintillation spectrometry. The remaining samples were chromatographed on a Pharmacia FPLC system using a Mono Q anion-exchange column.

## O=C(O)c1[nH]c(=O)[nH]c(=O)c1F [5-fluoro-orotate]
[1]; L1210, L-1210, with 1 mM uridine, read-out: IC50 With 1 mM Uridine
  IC50: 5 µM
[1]; L1210, L-1210, without uridine, read-out: IC50 Without Uridine
  IC50: 2.8 µM
[2]; 90 minutes after injection, Mono Q chromatography
  identity of plasma radioactivity: radioactivity in the plasma fraction was due to 5-fluoro-orotate and not some secondary metabolite of the experimental drug
[2]; P. yoelii infected (10% parasitemia), 1 mg/kg, vs uninfected mice
  plasma pharmacokinetic profile in infected mice: essentially the same as that of uninfected mice
[2]; [2-14C]-5-fluoro-orotate i.p.
  circulating radioactivity associated with blood cells: below 10%
[2]; mouse, ip, single i.p. dose, plasma, mice, read-out: t1/2 (loss from the circulation)
  half-life: ~1.5 h
[2]; mouse, plasma, ip, 0.2 mg/kg i.p., within 60 minutes, read-out: drug concentration within 60 minutes
  concentration at 1 h: < 0.5 µM
[2]; mouse, plasma, ip, 0.2 mg/kg i.p., read-out: maximum drug concentration
  Cmax: ≤ 2 µM
[2]; mouse, plasma, ip, single i.p. 5 mg/kg, read-out: peak plasma concentration
  Cmax: ~30 µM
[2]; mouse, plasma, ip, single i.p. 0.2, 1, 5 mg/kg, all dosages, read-out: time of peak plasma concentration
  Tmax: ≤ 0.333 h
[2]; single i.p. 5 mg/kg, read-out: plasma concentration after rapid drop
  concentration: < 10 µM

Reference: patent publication US6159953A, “Anti-malarial composition and method of use” (Catholic University of America, priority 1992, dated 2000)
